{"source": "patent US11648258B2", "about": "“Method and compounds for inhibiting the MCM complex and their application in cancer treatment” (priority 2012, dated 2023)", "key": {"[1]": {"tested_on": "cancer cell lines (HepG2, Hep3B, HeLa, HK1, C666-1)", "experiment": "cells", "format": "cell-based, human", "details": "for anti-proliferative (anticancer) activity, in words: 48 hrs", "description": "(§1) For testing the anti-proliferation activity of the compounds in human cell lines and calculation of IC50, cancer cells including HepG2, HeLa and Hep3B (4×10^5 cells/well) and normal L-02 cells (5×10^5 cells/well) were respectively seeded in 96-well plates in 100 μl of culture medium and incubated for about 12 hrs at 37° C. The cells were treated with two-fold serial dilutions of the drugs for 48 hrs. Medium was removed and 100 μl of culture medium containing 1 μM WST-1 (water soluble tetrazolium-1) were added to each well. The cells were incubated for 2 hrs, and absorbance at 405 nm (reference at 630 nm) was then measured. To construct the standard curve of the relationship between cell number and absorbance at OD405, serial dilutions of cells with known cell numbers were seeded and incubated for six hrs before being measured by the WST-1 assay. The cell viability was expressed as the ratio of the number of live cells treated with a candidate compound versus that of the DMSO-treated cells.\n(§2) To further test 17beta-Deacetyltanghinin and to determine the IC50 values, besides L-02 and HepG2, Hep3B (another liver cancer cell line which is p53-negative), HeLa (cervical cancer cell line), HK1 and C666-1 (nasopharyngeal carcinoma) cells and a hTert-immortalized normal nasopharyngeal cell line (NP460) were treated by 17beta-Deacetyltanghinin for 48 hrs, and the relative cell vabilities were determined by WST-1 assay (FIG. 2B, C)."}, "[2]": {"molecular_target": "T1, hMcm2-hMcm6 interaction (MCM complex) (Homo sapiens, UniProt P49736+Q14566)", "T1 construct": "endogenous in cells; host or cells: HeLa", "T1 sequence (P49736 2-904 limits assumed)": "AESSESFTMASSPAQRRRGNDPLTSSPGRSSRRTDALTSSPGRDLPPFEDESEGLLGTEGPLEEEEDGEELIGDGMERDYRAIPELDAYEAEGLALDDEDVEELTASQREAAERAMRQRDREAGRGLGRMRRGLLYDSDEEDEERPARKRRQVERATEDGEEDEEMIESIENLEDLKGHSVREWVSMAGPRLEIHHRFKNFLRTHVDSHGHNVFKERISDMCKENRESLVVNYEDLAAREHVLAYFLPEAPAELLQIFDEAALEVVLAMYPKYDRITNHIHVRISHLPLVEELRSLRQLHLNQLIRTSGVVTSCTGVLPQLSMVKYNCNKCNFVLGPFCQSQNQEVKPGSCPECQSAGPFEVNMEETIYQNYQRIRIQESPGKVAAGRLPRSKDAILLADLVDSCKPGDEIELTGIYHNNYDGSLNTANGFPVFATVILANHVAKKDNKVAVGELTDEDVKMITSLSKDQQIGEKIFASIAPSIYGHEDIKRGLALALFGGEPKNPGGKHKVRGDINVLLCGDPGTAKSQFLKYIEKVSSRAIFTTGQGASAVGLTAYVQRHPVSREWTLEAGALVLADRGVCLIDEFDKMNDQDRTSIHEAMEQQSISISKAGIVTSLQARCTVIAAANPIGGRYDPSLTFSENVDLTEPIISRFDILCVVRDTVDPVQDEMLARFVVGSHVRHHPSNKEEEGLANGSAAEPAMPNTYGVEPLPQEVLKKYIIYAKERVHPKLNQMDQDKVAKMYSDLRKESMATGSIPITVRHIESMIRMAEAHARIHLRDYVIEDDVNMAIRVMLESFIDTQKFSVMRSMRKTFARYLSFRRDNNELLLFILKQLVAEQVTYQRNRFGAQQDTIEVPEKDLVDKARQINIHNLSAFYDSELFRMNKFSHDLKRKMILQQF", "T1 sequence (Q14566 whole entry)": "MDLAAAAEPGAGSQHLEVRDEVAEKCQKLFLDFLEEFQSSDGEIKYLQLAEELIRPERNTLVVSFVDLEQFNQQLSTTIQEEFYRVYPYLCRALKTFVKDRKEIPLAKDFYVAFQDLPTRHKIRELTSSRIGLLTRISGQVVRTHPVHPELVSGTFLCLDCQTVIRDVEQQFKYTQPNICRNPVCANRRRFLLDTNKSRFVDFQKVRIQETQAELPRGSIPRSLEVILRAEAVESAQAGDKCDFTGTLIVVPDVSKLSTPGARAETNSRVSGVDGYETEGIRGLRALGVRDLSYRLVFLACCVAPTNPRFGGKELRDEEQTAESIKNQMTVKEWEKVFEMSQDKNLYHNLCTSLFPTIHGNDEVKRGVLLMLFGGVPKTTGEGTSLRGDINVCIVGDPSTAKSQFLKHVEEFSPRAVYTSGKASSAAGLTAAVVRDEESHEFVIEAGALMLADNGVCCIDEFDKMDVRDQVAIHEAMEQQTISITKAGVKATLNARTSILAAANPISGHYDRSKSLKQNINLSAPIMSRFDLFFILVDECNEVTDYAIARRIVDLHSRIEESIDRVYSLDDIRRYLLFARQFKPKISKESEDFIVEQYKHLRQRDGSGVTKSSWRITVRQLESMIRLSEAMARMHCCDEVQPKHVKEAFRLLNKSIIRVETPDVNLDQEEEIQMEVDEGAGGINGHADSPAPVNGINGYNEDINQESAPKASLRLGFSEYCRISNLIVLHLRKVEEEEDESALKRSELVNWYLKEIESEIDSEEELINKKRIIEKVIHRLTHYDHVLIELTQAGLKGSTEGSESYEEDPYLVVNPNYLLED", "experiment": "Co-immunoprecipitation of MCM subunits in HeLa cell extracts", "format": "cell-based", "details": "asynchronous HeLa cells, whole cell extracts", "description": "To test if 17beta-Deacetyltanghinin targets hMcm2 and hMcm6 proteins in human cells, possible co-immunoprecipitation (co-IP) of the two proteins was tested in human cell extracts from cells treated with 17beta-Deacetyltanghinin. In FIG. 3, asynchronous HeLa cells were treated with DMSO or 17beta-Deacetyltanghinin (DAT) (FIG. 3A), or with DMSO, 17beta-Neriifolin (NRF) or 17beta-Deacetyltanghinin diol (Diol) (FIG. 3B), and whole cell extracts were prepared and further incubated with the compound before being used for co-IP in the presence of the compound. The immunoprecipitates were then immunoblotted with anti-hMcm 6, anti-hMcm2, anti-hMcm4 and anti-hMcm7 antibodies."}, "[3]": {"molecular_target": "T2, hMcm2 and hMcm6 (Homo sapiens, UniProt P49736+Q14566)", "T2 construct": "the endogenous hMcm2 and hMcm6 were detected by specific antibodies against these proteins; endogenous in cells; host or cells: HeLa", "T2 sequence (P49736 2-904)": "as the sequence (P49736 2-904 limits assumed) above", "T2 sequence (Q14566 whole entry)": "as the sequence (Q14566 whole entry) above", "experiment": "Immunostaining / GFP fluorescence microscopy of MCM nuclear localization in HeLa cells", "format": "cell-based", "details": "24 hrs", "description": "To study the effect of the anticancer compounds on the interaction between hMcm2 and hMcm6 in the cells, immunostaining was performed to detect the sub-cellular localization of the proteins. HeLa cells grown on cover slips (coated with poly-D-lysine) with or without drug treatment were fixed with 4% PFA in PBS at room temperature for 20 min. After permeabilization with 0.1% Triton X-100 and 1% BSA in PBS for 20 min, cells were blocked with 1% BSA and then incubated with rabbit anti-hMcm6 (Santa Cruz; 1:500) and mouse anti-hMcm2 (Becton Dickinson; 1:500) primary antibodies at room temperature for 1 hr. Cells were then incubated with Alexa Fluor 488-conjugated donkey […] antibody and Alexa Fluor 594-conjugated donkey anti-mouse antibody (Invitrogen; 1:500) at room temperature for 1 hr. Three washes with PBS were performed after each round of antibody incubation. Cells were then incubated with Hochest 33852 (Sigma Chemical Company; 1 μg/ml) at room temperature for 15 min for nuclear staining and washed with PBS three times again. At last, cells were mounted and observed under the fluorescence microscope (Nikon TE2000E).\nBecause pair-wise interactions among the MCM subunits are required for the MCM heterohexameric ring structure, which is essential for their import into the nucleus, disruption of the interaction between hMcm2 and hMcm6 should destroy the hexamer and result in failure of nuclear localization of MCM proteins. To test this, we employed both indirect fluorescence microscopy (immunostaining) using antibodies against the endogenous MCM proteins and direct fluorescence microscopy after transfection with plasmids to express hMcm2-GFP and hMcm6-GFP in the cells.\nIn immunostaining, HeLa cells were treated by 17beta-Deacetyltanghinin for 24 hrs, and the endogenous hMcm2 and hMcm6 were detected by specific antibodies against these proteins. […] In direct fluorescence microscopy, HeLa cells expressing hMcm2-GFP and hMcm6-GFP were treated with 17beta-Deacetyltanghinin for 36 hrs starting at 4 hrs post-transfection with the plasmids expressing hMcm2-GFP and hMcm6-GFP."}, "[4]": {"tested_on": "cancer cells (HeLa, HepG2)", "experiment": "Flow cytometry / Annexin V staining (cell cycle, apoptosis) in cancer cells", "format": "cell-based, human", "details": "cancer cells", "description": "Both floating and attached cells were collected and washed once with PBS. Cells were fixed in 70% ethanol for 1 hr to overnight at −20° C., washed thoroughly with PBS, and then stained in 50 μg/ml RNase A, 0.1% Triton X-100, 0.1 mM EDTA (pH 7.4), and 50 μg/ml propidium iodide for 30 min at 4° C. Samples were analyzed with the FACSort instrument (Becton Dickinson).\nMoreover, inhibition of DNA replication and subsequent induction of apoptosis by 17beta-Deacetyltanghinin could be shown by flow cytometry. In FIG. 7. Hela cells were blocked at M phase by Nocodazole (Noc.; FIG. 7A), the G1/S transition by mimosine (MMS; FIG. 7B), or at early S phase by Hydroxyurea (HU; FIG. 7C) and then released into fresh medium in the presence of 17beta-Deacetyltanghinin (DAT). The cells at different time points after release were analyzed by follow cytometry. Ayn. means asynchronous cells. Untreated cells and cells treated with the solvent DMSO could complete M, G1 and S phases after release (FIG. 7A). […] Similarly, cells released from the Mimosine (MMS) arrest (at the G1/S transition; FIG. 7B) or Hydroxyurea (HU) arrest (in early S phase; FIG. 7C) could not finish S phase in the presence of 17beta-Deacetyltanghinin.\nIn FIG. 8A, flow cytometry was performed to analyze the DNA contents in HepG2 and L-02 cells treated with 17beta-Deacetyltanghinin at various concentrations for 24 hrs. In FIG. 8B, Hela cells were treated with 17beta-Deacetyltanghinin for 24 hrs and labeled with Annexin V-Cy3 (Arm. Cy3) for 20 min. Mitoxantrone (MTX), a clinical anticancer drug that can induce apoptosis in cancer cells, was used as a positive control."}, "[5]": {"experiment": "in vitro", "details": "human", "description": "as §1\n(§3) A pair of human cell lines, L-02 (normal liver cells) and HepG2 (a liver cancer cell line) was treated with 17beta-Deacetyltanghinin for 48 hrs. […] In FIG. 2B-H, quantification of viable cell numbers was carried out using WST-1 (Water-soluble tetrazolium-1) assay.\nas §2"}, "[6]": {"tested_on": "HepG2 cells (hepatocellular carcinoma)", "details": "compound 0.5 ∝g/ml; WST-1"}, "[7]": {"tested_on": "L-02 cells (normal human liver cells)", "experiment": "in vitro", "details": "compound 0.5 ∝g/ml; WST-1", "description": "as §1, §3, §2"}, "[8]": {"tested_on": "HeLa cells xenograft tumors", "experiment": "In vivo anticancer activity, nude mice xenograft model", "details": "10 mg/kg per injection, first 10 days", "description": "In vivo anticancer activity tests were carried out in the nude mice xenograft model by inoculating nude mice with HeLa cells in both the left and right flanks. After random grouping, nude mice were treated intraperitoneally with 17beta-Deacetyltanghinin or the solvent (30% of propylene glycol in PBS). In the first test, 3 days after tumor inoculation when small tumors started to form, two groups of nude mice were treated on days 1-3 and 6-10 with 3.5 and 7.0 mg-drug/kg-body weight of 17beta-Deacetyltanghinin respectively, and another group of control mice were treated with the same volume of the solvent (FIG. 10A). In FIG. 10A, the tumor volume data represented by the small-size data point symbol linked with thin lines were obtained on the days when both measurement of tumor size and drug injections were performed, and the tumor volume data represented by the large-size data point symbol linked with thick lines were obtained on the days without drug injection. Each tumor size was average of ten tumors in five mice in each group.\n(§4) A further set of animal experiments was then conducted with a longer period of time, in which fifteen drug injections at 5.0 mg/kg were performed one week after tumor inoculation when the tumor size reached 0.05-0.1 cm^3. In FIG. 10B, drug injections and tumor size measurements were performed on the days represented by the data points, and the photographs in FIG. 10C were taken on day 20."}, "[9]": {"experiment": "In vivo toxicity assessment in nude mice", "details": "10 mg/kg per injection, tumor-bearing nude mice", "description": "as §4\nIn FIG. 11, S refers to solvent-treated mice without tumor inoculation; S+T represents solvent-treated mice with tumor inoculation; DAT refers to 17beta-Deacetyltanghinin-treated mice without tumor inoculation; DAT+T represents 17beta-Deacetyltanghinin-treated mice with tumor inoculation; and P+T refers to Paelitaxel-treated mice with tumor inoculation. Three out of the five mice with intermediate tumor size in each group were selected for physiological parameters examination. The tumors (T) and internal organs including liver (L), heart (H) and kidney (K) were dissected from each mouse.\nFurthermore, blood from each mouse was also collected for the tests of the ALT (alanine aminotransferase) and LDH (Lactate dehydrogenase) activities. […] The results of both tests were represented as the values of differently treated mice relative to the untreated ones."}}, "note": "“Also recorded” adds a separate entry of the source. Read-outs that look alike come from different tables or passages of the source."}
{"molecule": "17beta-Deacetyltanghinin diol", "values": [{"measurement": "anti-proliferative (anticancer) activity, in words", "setting": "[1]; WST-1 assay", "value": "lower anticancer activity than 17beta-Deacetyltanghinin"}, {"measurement": "disruption of hMcm2-hMcm6 interaction (co-IP)", "setting": "[2]", "value": "weaker activity"}, {"measurement": "nuclear localization of endogenous hMcm2 and hMcm6 (immunostaining)", "setting": "[3]", "value": "weaker activity"}, {"measurement": "induction of apoptosis (sub-G1 population, flow cytometry)", "setting": "[4]", "value": "able to induce apoptosis of cancer cells"}]}
{"molecule": "C[C@]12CC[C@H](O)C[C@H]1CC[C@@H]1[C@@H]2CC[C@]2(C)[C@@H](c3ccc(=O)oc3)CC[C@]12O", "note": "[Bufalin]", "values": [{"measurement": "viability", "setting": "[5]", "value": 37.2, "unit": "%"}, {"measurement": "HepG2 cell viability (%)", "setting": "[6]", "value": 13.7, "unit": "%"}]}
{"molecule": "CO[C@H]1[C@H](O)[C@H](O[C@H]2CC[C@@]3(C)[C@H](CC[C@@H]4[C@@H]3CC[C@]3(C)[C@@H](C5=CC(=O)OC5)CC[C@]43O)C2)O[C@@H](C)[C@@H]1O", "note": "[17beta-Neriifolin]", "values": [{"measurement": "disruption of hMcm2-hMcm6 interaction (co-IP)", "setting": "[2]", "value": "could also disrupt the hMcm2-hMcm6 interaction"}, {"measurement": "nuclear localization of endogenous hMcm2 and hMcm6 (immunostaining)", "setting": "[3]", "value": "as efficiently as 17beta-Deacetyltanghinin"}, {"measurement": "induction of apoptosis (sub-G1 population, flow cytometry)", "setting": "[4]", "value": "able to induce apoptosis of cancer cells"}]}
{"molecule": "CO[C@H]1[C@H](O)[C@H](O[C@H]2CC[C@@]3(C)[C@H](CC[C@@H]4[C@@H]3CC[C@]3(C)[C@H](C5=CC(=O)OC5)CC[C@]43O)C2)O[C@@H](C)[C@@H]1O", "note": "[17alpha-Neriifolin, reference compound]", "values": [{"measurement": "L-02 cell viability (%)", "setting": "[7]", "value": 100, "unit": "%"}, {"measurement": "anti-proliferative (anticancer) activity, in words", "setting": "[1]; WST-1 assay", "value": "little anti-proliferative activity"}, {"measurement": "HepG2 cell viability (%)", "setting": "[6]", "value": 100, "unit": "%"}]}
{"molecule": "C[C@]12CC[C@H](O)C[C@H]1CC[C@@H]1[C@@H]2CC[C@]2(C)[C@@H](c3ccc(=O)oc3)C[C@H]3O[C@]132", "note": "[Resibufogenin]", "values": [{"measurement": "viability", "setting": "[5]", "value": 37.9, "unit": "%"}, {"measurement": "HepG2 cell viability (%)", "setting": "[6]", "value": 1.4, "unit": "%"}]}
{"molecule": "CO[C@H]1[C@H](O)[C@H](O[C@H]2CC[C@@]3(C)[C@@H](C2)C[C@@H]2O[C@]24[C@@H]3CC[C@]2(C)[C@H](C3=CC(=O)OC3)CC[C@]42O)O[C@@H](C)[C@@H]1O", "note": "[17alpha-Deacetyltanghinin, reference compound]", "values": [{"measurement": "L-02 cell viability (%)", "setting": "[7]", "value": 100, "unit": "%"}, {"measurement": "anti-proliferative (anticancer) activity, in words", "setting": "[1]; WST-1 assay", "value": "little anti-proliferative activity"}, {"measurement": "HepG2 cell viability (%)", "setting": "[6]", "value": 97.2, "unit": "%"}]}
{"molecule": "COc1cc([C@@H]2c3cc4c(cc3[C@@H](O[C@@H]3O[C@@H]5CO[C@@H](C)O[C@H]5[C@H](O)[C@H]3O)[C@H]3COC(=O)[C@H]23)OCO4)cc(OC)c1OP(=O)(O)O", "note": "[VP16, Etoposide phosphate]", "values": [{"measurement": "selectivity between cancer and normal cells, in words", "setting": "[1]; cancer vs normal cells, WST-1 assay", "value": "did not show significant selectivity"}]}
{"molecule": "CC(=O)O[C@H]1C(=O)[C@@]2(C)[C@H]([C@H](OC(=O)c3ccccc3)[C@]3(O)C[C@H](OC(=O)[C@H](O)[C@@H](NC(=O)c4ccccc4)c4ccccc4)C(C)=C1C3(C)C)[C@]1(OC(C)=O)CO[C@@H]1C[C@@H]2O", "note": "[Paclitaxel, reference compound]", "values": [{"measurement": "selectivity between cancer and normal cells, in words", "setting": "[1]", "value": "did not show significant selectivity; also recorded: more toxic to normal liver cells than liver cancer cells"}, {"measurement": "antitumor activity compared with 17beta-Deacetyltanghinin, in words", "setting": "[8]", "value": "much less antitumor activities"}, {"measurement": "mortality from toxicity", "setting": "[9]", "value": "the mice died on day 10"}]}
{"molecule": "CC(=O)O[C@H]1[C@H]2O[C@]23[C@@H]2CC[C@@H]4C[C@@H](O)CC[C@]4(C)[C@H]2CC[C@]3(C)[C@H]1c1ccc(=O)oc1", "note": "[Cinobufagin]", "values": [{"measurement": "viability", "setting": "[5]", "value": 39.7, "unit": "%"}, {"measurement": "HepG2 cell viability (%)", "setting": "[6]", "value": 1.5, "unit": "%"}]}
